What was measured:
Drosophila [1] = assay: Responsiveness to arousing stimuli (arousal threshold) in flies; format: in vivo, Drosophila melanogaster; conditions: flies given drug in food
Experimental: In order to determine whether periods of rest are associated with increased arousal thresholds, flies were subjected to vibratory stimuli of increasing intensity (0.05 g, 0.1 g, and 6 g). In these experiments, flies were placed in glass tubes (65 mm in length, 5 mm I.D.) maintained on a hard plastic platform above a Grass speaker. The output of the speaker was controlled via a Beckman signal generator and the resulting vibration of the platform was measured with an accelerometer. Each fly received a stimulus each hour (total of 8 stimuli) of constant intensity. The behavioral state at the time of stimulus delivery and the ensuing response were videotaped and scored off-line.

Drosophila [2] = tested on: Drosophila
Experimental: In order to monitor fly behavior, five-day old virgin female Canton-S Drosophila melanogaster were cultured at 25° C., 50-60% humidity, 12 hr:12 hr light:dark cycle, on brewer's yeast, dark corn syrup and agar food, following procedures modified from J. Bennett and D. L. van Dyke, Dros. […] Continuous, high-resolution measurement of fly behavior was achieved using an ultrasound activity monitoring system shown in FIG. 1A. Briefly, a 44 kHz standing wave was passed across an independent enclosure containing a single fly. An integrated circuit sampled a portion of each wave as a function of the transmit signal and compared it to the output from the receive signal for the same time-window. When the fly moved its mass within the field, it perturbed the standing wave and the resulting difference was counted as a movement. The output was sampled by a PC at 200 Hz, the data were summed in 2-sec bins and stored for later processing. This system detects very small movements in Drosophila's behavioral repertoire, including fine movements of the head, wings, and limbs. To monitor rest-activity patterns in large numbers of flies, an infrared Drosophila Activity Monitoring System was used (Trikinetics; described in M. Hamblen et al., J. Neurogen. 3:249 (1986)). To validate the system, flies were visually monitored for a total of 17.75 h (n=7). The number of times the fly crossed the infrared beam was counted in 5-minute bins. […] Drugs (caffeine or hydroxyzine) dissolved in food were continuously available to flies beginning in the final hour of the light period.

Structure (SMILES) | responsiveness to arousing stimuli (Drosophila [1]) | rest during the first hour of the dark period (Drosophila [2]; flies given drug in food from final hour of light period, FIG. 3D, n=40/dose) | latency to first dark period rest (Drosophila [2]; flies given drug in food from final hour of light period, FIG. 3E, n=40/dose) | total amount of activity during the light period (Drosophila [2]; in vivo) | motor activity (Drosophila [2]; flies given drug in food from final hour of light period) | amount of rest during the dark period (Drosophila [2]; flies given drug in food from final hour of light period, FIG. 3C, n=36/dose, p<0.0001)
OCCOCCN1CCN(C(c2ccccc2)c2ccc(Cl)cc2)CC1 (stereo not drawn) [hydroxyzine] | preserved | increased in a dose-dependent manner | decreased | unchanged |  | 
Cn1c(=O)c2c(ncn2C)n(C)c1=O [caffeine] |  |  |  |  | increased | decreased in a dose-dependent fashion

Reference: patent US7468178B2, “Methods for identifying compounds that modulate vigilance states” (Neurosciences Research Foundation, Inc., priority 1999, dated 2008)
